According to patent US20160120888A1, “ANTICANCER DRUG” (KTN BIOTEC, INC., priority 2013, published 2016):

Legend:
Type in all cases: cell-based
[1] = tested on: MKN28 human gastric cancer cell line; assay: Cell viability assay (MTT), MKN28 gastric cancer cells; conditions: 48 hr treatment, FIG. 4B
Description: (§1) FIG. 4 is a graph showing that diDCP-LA-PI and diDCP-LA-PIe induce cell death of (A) human lung cancer cell (Lu65), (B) gastric cancer cell (MKN28), (C) breast cancer cell (MCF-7) in a concentration-dependent manner. The cells were treated with a given concentration of diDCP-LA-PI or diDCP-LA-PIe for 48 hr, and subjected to MTT assay.
MKN28 human gastric cancer cell line was provided by Dr. Tatematsu (Nagoya University, Japan), and cultured in RPMI-1640 medium.
(§2) In all cell cultures, the cells were incubated in a medium added with 10% (v/v) heat-inactivated bovine serum, penicillin (final concentration, 100 U/ml) and streptomycin (final concentration, 0.1 mg/ml) in a humid environment under 5% CO2 and 95% air at 37° C.
(§3) The cell viability was evaluated by an established method using 3-(4,5-dimethyl-2-thiazolyl)-2,5-diphenyl-2H-tetrazolium bromide (MTT).

[2] = tested on: MCF-7 human breast cancer cell line; assay: Cell viability assay (MTT), MCF-7 breast cancer cells; conditions: breast cancer cell (MCF-7), 48 hr treatment, FIG. 4C
Description: as §1
MCF-7 human breast cancer cell line was obtained from RIKEN cell bank (Ibaraki, Japan) and cultured in Dulbecco's modified Eagle's medium (DMEM).
as §2, §3

[3] = tested on: human malignant pleural mesothelioma cell lines NCI-H28, NCI-H2052, NCI-H2452, MSTO-211H; assay: Cell viability assay (MTT), human malignant pleural mesothelioma cell lines; conditions: 48 hr treatment; for cell death induction (MTT intensity relative to cells free of drug treatment): FIG. 2 / FIG. 3
Description: FIG. 2 is a graph showing that diDCP-LA-PI and diDCP-LA-PIe induce cell death of human malignant pleural mesothelioma in a concentration-dependent manner. The cells were treated with a given concentration of diDCP-LA-PI or diDCP-LA-PIe for 48 hr, and subjected to MTT assay.
FIG. 3 is a graph showing that DO-PI and DP-PI induce the same level of cell death of human malignant pleural mesothelioma in a concentration-dependent manner. The cells were treated with a given concentration of DO-PI or DP-PI for 48 hr, and subjected to MTT assay.
NCI-H28, NCI-H2052, NCI-H2452, and MSTO-211H which are cell lines of human malignant pleural mesothelioma were used.
These cells were purchased from American Type Culture Collection (Manassas, Va., USA). The cells were cultured in Roswell Park Memorial Institute (RPMI)-1640 medium added with 0.003% (w/v) L-glutamine.
as §2, §3

[4] = tested on: Lu-65 human lung cancer cell line; assay: Cell viability assay (MTT), Lu-65 lung cancer cells; conditions: human lung cancer cell (Lu65), 48 hr treatment, FIG. 4A
Description: as §1
Lu-65 human lung cancer cell line was purchased from Health Science Research Resources Bank (Osaka, Japan), and cultured in RPMI-1640 medium.
as §2, §3

Compound	cell death induction (MTT intensity relative to cells free of drug treatment) [1]	cell death induction (MTT intensity relative to cells free of drug treatment) [2]	cell death induction (MTT intensity relative to cells free of drug treatment) [3]	cell death induction (MTT intensity relative to cells free of drug treatment) [4]	effectiveness of cell death induction compared with diDCP-LA-PI [1]	effectiveness of cell death induction compared with diDCP-LA-PI [2]	effectiveness of cell death induction compared with diDCP-LA-PI ([3]; human malignant pleural mesothelioma cells, FIG. 2)	effectiveness of cell death induction compared with diDCP-LA-PI [4]
1,2-O-bis-[8-{2-(2-pentyl-cyclopropylmethyl)-cyclopropyl}-octanoyl]-sn-glycerol-3-phosphatidyl-D-inositol [diDCP-LA-PI]	induce cell death of human lung cancer, gastric cancer and breast cancer in a concentration dependent manner	induce cell death of human lung cancer, gastric cancer and breast cancer in a concentration dependent manner	induce cell death of human malignant pleural mesothelioma cells in a concentration dependent manner	induce cell death of human lung cancer, gastric cancer and breast cancer in a concentration dependent manner	–	–	–	–
CCCCCCCCCCCCCCCC(=O)OC[C@H](COP(=O)(O)O[C@@H]1[C@H](O)[C@H](O)[C@@H](O)[C@H](O)[C@H]1O)OC(=O)CCCCCCCCCCCCCCC [DP-PI, 1,2-dipalmitoyl-sn-glycerol-3-phospho-(1′-myo-inositol)]	–	–	induce the same level of cell death of human malignant pleural mesothelioma cells in a concentration dependent manner	–	–	–	–	–
1,2-O-bis-[8-{2-(2-pentyl-cyclopropylmethyl)-cyclopropyl}-octanoyl]-sn-glycerol-3-phosphatidyl-L-1-inositol [diDCP-LA-PIe]	induce cell death of human lung cancer, gastric cancer and breast cancer in a concentration dependent manner	induce cell death of human lung cancer, gastric cancer and breast cancer in a concentration dependent manner	induce cell death of human malignant pleural mesothelioma cells in a concentration dependent manner	induce cell death of human lung cancer, gastric cancer and breast cancer in a concentration dependent manner	more effective	more effective	more effective	more effective
CCCCCCCC/C=C\CCCCCCCC(=O)OC[C@H](COP(=O)(O)OC1C(O)C(O)C(O)[C@@H](O)C1O)OC(=O)CCCCCCC/C=C\CCCCCCCC (some centres unmarked) [DO-PI, 1,2-dioleoyl-sn-glycerol-3-phospho-(1′-myo-inositol)]	–	–	induce the same level of cell death of human malignant pleural mesothelioma cells in a concentration dependent manner	–	–	–	–	–
